Biological target: T1, 5-Lipoxygenase (Homo sapiens, UniProt P09917)
T1 construct: Granulozyten freiwilliger Spender; endogenous in cells; host or cells: granulocytes of volunteer donors
T1 sequence (P09917 1-674): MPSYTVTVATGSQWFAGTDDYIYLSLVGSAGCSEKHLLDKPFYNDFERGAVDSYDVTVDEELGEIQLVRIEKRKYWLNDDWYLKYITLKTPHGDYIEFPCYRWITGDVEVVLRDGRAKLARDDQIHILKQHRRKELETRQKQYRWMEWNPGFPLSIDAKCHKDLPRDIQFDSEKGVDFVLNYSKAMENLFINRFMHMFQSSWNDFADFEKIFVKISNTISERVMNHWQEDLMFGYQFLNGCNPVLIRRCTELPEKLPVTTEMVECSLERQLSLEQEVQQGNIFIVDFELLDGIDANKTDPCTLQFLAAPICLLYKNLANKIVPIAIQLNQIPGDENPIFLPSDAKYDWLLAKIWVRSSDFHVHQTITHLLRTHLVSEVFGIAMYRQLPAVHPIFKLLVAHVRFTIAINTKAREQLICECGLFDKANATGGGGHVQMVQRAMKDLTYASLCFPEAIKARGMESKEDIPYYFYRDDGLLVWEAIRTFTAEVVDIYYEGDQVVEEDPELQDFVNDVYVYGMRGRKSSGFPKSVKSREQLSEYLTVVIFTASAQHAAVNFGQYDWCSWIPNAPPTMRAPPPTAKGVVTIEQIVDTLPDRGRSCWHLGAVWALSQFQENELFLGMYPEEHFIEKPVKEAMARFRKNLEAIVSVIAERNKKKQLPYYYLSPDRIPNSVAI
Assay: 5-lipoxygenase test in granulocytes (HPLC of 5-lipoxygenase products)
Type: cell-based
Conditions: granulocytes of volunteer donors, arachidonic acid and calcium ionophore, 37°C, 10 min, pH 7,4; read-out: IC50- Wert (Bildung von Biotransformationsprodukten der 5-Lipoxygenase)
Description: Granulozyten freiwilliger Spender [5-10 x 10^6 / ml] wurden in gepufferter physiologischer Kochsalzlösung [pH 7,4] mit Arachidonsäure [40µmol] und Calciumionophor [10µmol] und steigenden Konzentrationen [10nMol bis 10µMol] der Prüfsubstanzen, Avarol bzw. einer Avarol - Zusammensetzung gemäß Beispiel 3, bei 37°C 10 Minuten lang inkubiert. Anschließend wurden die Reaktion durch Zugabe von 1ml Methanol beendet, die Proben zentrifugiert und die Konzentration an Biotransformations-Produkten der 5-Lipoxygenase im Überstand per HPLC im UV bei 280 und 235nm analysiert. Avarol und die neue Zusammensetzung mit hohem Avarolgehalt, der Dysidea avara-Nativextrakt, hemmten die Bildung von Biotransformationsprodukten der 5-Lipoxygenase. Die IC50- Werte unterschieden sich aber auffällig deutlich. Während für Avarol ein IC50- Wert von 1,3 µM ermittelt wurde, der sich mit Literaturangaben deckt, hemmte die neue Zusammensetzung die Bildung von Produkten der 5-Lipoxygenase bereits mit einem IC50- Wert von 58 nM und war damit überraschend stärker wirksam als Avarol.

CC1=CCC[C@H]2[C@](C)(Cc3cc(O)ccc3O)[C@@H](C)CC[C@]12C [Avarol]
IC50: 1300 nM

From patent EP1391197B1, “Process for preparation of compositions with a high content in avarol and their use” (KliniPharm GmbH, priority 2002, dated 2004)
